Read-outs that look alike come from different tables or passages of the source.
What was measured:
[1] = target: recombinant human Aurora-A (Homo sapiens, UniProt O14965); assay: biochemical; details: NADH consumption at 340 nm, 30 °C; read-out: IC50 ± SD, inhibition of Aurora-A kinase
Protocol: At 30 °C, dilute enzyme (aurora A), substrates (NADH, NaCl, MgCl2, PEP, LDH, PK, and histones H3), ATP, and inhibitors (selected compounds as per in silico studies) in kinase buffer (HEPES) and this to 96 well plates and incubate for 60 min. Once the ATP substrate was added, the reaction began. With the reaction, NADH was continuously transformed into NAD^+ The activity of Aurora-A can be assayed by measuring the consumption of nicotinamide adenine dinucleotide plus hydrogen (NADH) at 340 nm. Absorbance at 340 nm was continuously recorded for 10 min. Inhibition of recombinant human Aurora-A by inhibitors was initially screened via an enzyme-coupled continuous spectrophotometric assay (Kishore et al., 2008; Aixia et al., 2011; Fancelli D et al., 2006).

[2] = tested on: HCT116 cell line (colorectal carcinoma); assay: MTT cytotoxicity assay, HCT116; type: cell-based, human
Protocol: (§1) MTT assay was engaged to evaluate the anticancer activity of synthesized compounds P(1–21) against various human cancer cell lines (breast cancer- MCF-7 and colorectal carcinoma- HCT116) [31–34].
(§2) The MTT test was carried out using the 3-(4,5-dimethyl-2-thiazolyl)-2,5-diphenyl-2H-tetrazolium (MTT) colorimetric test [33, 34]. […] The MTT test based on the reduction of MTT (yellow color) depends on cellular metabolic activities due to H-dependent cellular NAD (P) oxidoreductase enzymes [33]. […] The final product of MTT reduction is a purple formazan that can be easily dissolved in DMSO.
(§3) To test the anticancer activities of the synthesized compounds (selected based on docking studies), we evaluated the antiproliferative activity of compounds P (1–21) against HCT116 and MCF-7 cell lines. All the experiments were repeated at least thrice independently, the 50% inhibitory concentration (IC50) of new hybrids was determined (as the anticancer drug concentration causing a 50% reduction in cell viability) and calculated using a trendline equation.

[3] = tested on: MCF-7 cell line (breast cancer); assay: MTT cytotoxicity assay, MCF-7; type: cell-based, human
Protocol: as §1, §2, §3

[4] = tested on: HCT 116 and MCF-7 cell lines; assay: cells; details: Homo sapiens, read-out: IC50, cytotoxicity, range over two cancer cell lines
Protocol: as §1, §2, §3

[5] = Homo sapiens, HCT-116, read-out: IC50 ± SD, HCT-116, inhibition of growth of tumor cell lines
[6] = Homo sapiens, MCF7, read-out: IC50 ± SD, MCF-7, inhibition of growth of tumor cell lines

Chain of recombinant human Aurora-A (O14965 whole entry): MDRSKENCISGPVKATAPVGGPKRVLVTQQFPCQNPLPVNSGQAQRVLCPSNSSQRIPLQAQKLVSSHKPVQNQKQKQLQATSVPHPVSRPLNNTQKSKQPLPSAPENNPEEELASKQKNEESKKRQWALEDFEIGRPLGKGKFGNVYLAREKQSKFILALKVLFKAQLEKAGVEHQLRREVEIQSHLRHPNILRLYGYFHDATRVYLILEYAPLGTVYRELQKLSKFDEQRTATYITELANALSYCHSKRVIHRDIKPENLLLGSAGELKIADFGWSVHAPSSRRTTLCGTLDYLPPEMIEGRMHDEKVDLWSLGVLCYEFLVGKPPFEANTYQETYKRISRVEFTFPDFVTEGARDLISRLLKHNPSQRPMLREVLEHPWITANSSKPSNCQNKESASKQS

| SMILES | IC50 [1] [µM] | melting point [°C] | IC50 [2, 5] [µM] | IC50 [3, 6] [µM] | IC50 ([2]; Homo sapiens, HCT-116, MTT assay, HCT116, read-out: IC50 ± SD, HCT-116, inhibition of growth of tumor cell lines) [µM] | IC50 ([2]; MTT assay, HCT116, listed as VX-680 (Tozasertib), read-out: IC50 ± SD, HCT-116, inhibition of growth of tumor cell lines) [µM] | IC50 ([3]; Homo sapiens, MCF7, MTT assay, MCF-7, read-out: IC50 ± SD, MCF-7, inhibition of growth of tumor cell lines) [µM] | IC50 ([3]; MTT assay, MCF-7, listed as VX-680 (Tozasertib), read-out: IC50 ± SD, MCF-7, inhibition of growth of tumor cell lines) [µM] | IC50 [4] [µM] |
| --- | --- | --- | --- | --- | --- | --- | --- | --- | --- |
| O=C1CSC(c2cn(C(=O)c3ccncc3)nc2-c2ccc(Br)cc2)N1c1ccc(Cl)cc1 (stereo not drawn) [Compound P-18, 2-(3-(4-bromophenyl)-1-isonicotinoyl-1H-pyrazol-4-yl)-3-(4-chlorophenyl)thiazolidin-4-one] | 1.62 ± 0.11 | 244 to 246 | 1.52 ± 0.09 | 1.77 ± 0.15 |  |  |  |  |  |
| COc1ccc(-c2nn(C(=O)c3ccncc3)cc2C2SCC(=O)N2c2ccccc2OC)cc1 (stereo not drawn) [Compound P-14] |  | 336 to 338 |  |  |  |  |  |  |  |
| COc1ccc(-c2nn(C(=O)c3ccncc3)cc2C2SCC(=O)N2c2ccc(Cl)cc2)cc1 (stereo not drawn) [Compound P-11, 3-(4-chlorophenyl)-2-(1-isonicotinoyl-3-(4-methoxyphenyl)-1H-pyrazol-4-yl)thiazolidin-4-one] | 2.78 ± 0.14 | 318 to 320 | 2.54 ± 0.2 | 2.53 ± 0.19 |  |  |  |  |  |
| COc1ccc(-c2nn(C(=O)c3ccncc3)cc2C2SCC(=O)N2c2ccccc2)cc1 (stereo not drawn) [Compound P-8, 2-(1-isonicotinoyl-3-(4-methoxyphenyl)-1H-pyrazol-4-yl)-3-phenylthiazolidin-4-one] | 7.32 ± 0.69 | 300 to 302 | 5.35 ± 0.27 | 6.08 ± 0.24 |  |  |  |  |  |
| O=C1CSC(c2cn(C(=O)c3ccncc3)nc2-c2ccc([N+](=O)[O-])cc2)N1c1ccc([N+](=O)[O-])cc1 (stereo not drawn) [Compound P-2, 2-(1-isonicotinoyl-3-(4-nitrophenyl)-1H-pyrazol-4-yl)-3-(4-nitrophenyl)thiazolidin-4-one] | 3.57 ± 0.35 |  | 3.52 ± 0.33 | 3.26 ± 0.31 |  |  |  |  |  |
| Cc1cc(Nc2cc(N3CCN(C)CC3)nc(Sc3ccc(NC(=O)C4CC4)cc3)n2)[nH]n1 [VX-680, Tozasertib, reference compound] |  |  |  |  | 0.32 ± 0.05 | 0.3 ± 0.03 | 0.4 ± 0.03 | 0.38 ± 0.02 |  |
| COc1ccc(-c2nn(C(=O)c3ccncc3)cc2C2SCC(=O)N2c2cccc(Cl)c2)cc1 (stereo not drawn) [Compound P-12, 3-(3-chlorophenyl)-2-(1-isonicotinoyl-3-(4-methoxyphenyl)-1H-pyrazol-4-yl)thiazolidin-4-one] | 5.59 ± 0.37 | 338 to 340 | 4.06 ± 0.38 | 4.35 ± 0.47 |  |  |  |  |  |
| COc1ccc(N2C(=O)CSC2c2cn(C(=O)c3ccncc3)nc2-c2ccc([N+](=O)[O-])cc2)cc1 (stereo not drawn) [Compound P-6, 2-(1-isonicotinoyl-3-(4-nitrophenyl)-1H-pyrazol-4-yl)-3-(4-methoxyphenyl)thiazolidin-4-one] | 0.18 ± 0.05 |  | 0.37 ± 0.15 | 0.44 ± 0.06 |  |  |  |  | 0.37 to 0.44 |
| O=C1CSC(c2cn(C(=O)c3ccncc3)nc2-c2ccc([N+](=O)[O-])cc2)N1c1ccc(Cl)cc1 (stereo not drawn) [Compound P-4, 3-(4-chlorophenyl)-2-(1-isonicotinoyl-3-(4-nitrophenyl)-1H-pyrazol-4-yl)thiazolidin-4-one] | 1.33 ± 0.15 | 286 to 288 | 1.35 ± 0.07 | 2.55 ± 0.07 |  |  |  |  |  |
| O=C1CSC(c2cn(C(=O)c3ccncc3)nc2-c2ccc(Br)cc2)N1c1ccc([N+](=O)[O-])cc1 (stereo not drawn) [Compound P-16, 2-(3-(4-bromophenyl)-1-isonicotinoyl-1H-pyrazol-4-yl)-3-(4-nitrophenyl)thiazolidin-4-one] | 2.1 ± 0.15 | 268 to 270 | 2.01 ± 0.11 | 2.25 ± 0.25 |  |  |  |  |  |
| O=C1CSC(c2cn(C(=O)c3ccncc3)nc2-c2ccc([N+](=O)[O-])cc2)N1c1ccccc1[N+](=O)[O-] (stereo not drawn) [Compound P-3, 2-(1-isonicotinoyl-3-(4-nitrophenyl)-1H-pyrazol-4-yl)-3-(2-nitrophenyl)thiazolidin-4-one] | 7.25 ± 0.8 | 282 to 284 | 4.47 ± 0.45 | 4.49 ± 0.42 |  |  |  |  |  |
| COc1ccccc1N1C(=O)CSC1c1cn(C(=O)c2ccncc2)nc1-c1ccc(Br)cc1 (stereo not drawn) [Compound P-21] |  | 260 to 262 |  |  |  |  |  |  |  |
| COc1ccc(-c2nn(C(=O)c3ccncc3)cc2C2SCC(=O)N2c2ccc([N+](=O)[O-])cc2)cc1 (stereo not drawn) [Compound P-9, 2-(1-isonicotinoyl-3-(4-methoxyphenyl)-1H-pyrazol-4-yl)-3-(4-nitrophenyl)thiazolidin-4-one] | 1.45 ± 0.05 | 308 to 310 | 1.45 ± 0.18 | 1.62 ± 0.05 |  |  |  |  |  |
| COc1ccccc1N1C(=O)CSC1c1cn(C(=O)c2ccncc2)nc1-c1ccc([N+](=O)[O-])cc1 (stereo not drawn) [Compound P-7, 2-(1-isonicotinoyl-3-(4-nitrophenyl)-1H-pyrazol-4-yl)-3-(2-methoxyphenyl)thiazolidin-4-one] | 0.42 ± 0.12 | 250 to 252 | 0.62 ± 0.03 | 0.88 ± 0.03 |  |  |  |  |  |
| COc1ccc(-c2nn(C(=O)c3ccncc3)cc2C2SCC(=O)N2c2ccccc2[N+](=O)[O-])cc1 (stereo not drawn) [Compound P-10, 2-(1-isonicotinoyl-3-(4-methoxyphenyl)-1H-pyrazol-4-yl)-3-(2-nitrophenyl)thiazolidin-4-one] | 0.65 ± 0.09 | 322 to 324 | 0.78 ± 0.04 | 1.03 ± 0.11 |  |  |  |  |  |
| COc1ccc(-c2nn(C(=O)c3ccncc3)cc2C2SCC(=O)N2c2ccc(OC)cc2)cc1 (stereo not drawn) [Compound P-13, 2-(1-isonicotinoyl-3-(4-methoxyphenyl)-1H-pyrazol-4-yl)-3-(4-methoxyphenyl) thiazolidin-4-one] | 12.4 ± 0.85 |  | 5.87 ± 0.42 | 8.21 ± 0.35 |  |  |  |  |  |
| O=C1CSC(c2cn(C(=O)c3ccncc3)nc2-c2ccc(Br)cc2)N1c1ccccc1 (stereo not drawn) [Compound P-15, 2-(3-(4-bromophenyl)-1-isonicotinoyl-1H-pyrazol-4-yl)-3-phenylthiazolidin-4-one] | 2.1 ± 0.13 | 256 to 258 | 2.18 ± 0.15 | 2.34 ± 0.27 |  |  |  |  |  |
| O=C1CSC(c2cn(C(=O)c3ccncc3)nc2-c2ccc([N+](=O)[O-])cc2)N1c1cccc(Cl)c1 (stereo not drawn) [Compound P-5, 3-(3-chlorophenyl)-2-(1-isonicotinoyl-3-(4-nitrophenyl)-1H-pyrazol-4-yl)thiazolidin-4-one] | 4.79 ± 0.83 | 274 to 276 | 3.88 ± 0.16 | 4.01 ± 0.1 |  |  |  |  |  |
| O=C1CSC(c2cn(C(=O)c3ccncc3)nc2-c2ccc([N+](=O)[O-])cc2)N1c1ccccc1 (stereo not drawn) [Compound P-1, 2-(1-isonicotinoyl-3-(4-nitrophenyl)-1H-pyrazol-4-yl)-3-phenylthiazolidin-4-one] | 2.34 ± 0.36 |  | 2.3 ± 0.14 | 4.4 ± 0.18 |  |  |  |  |  |
| COc1ccc(N2C(=O)CSC2c2cn(C(=O)c3ccncc3)nc2-c2ccc(Br)cc2)cc1 (stereo not drawn) [Compound P-20, 2-(3-(4-bromophenyl)-1-isonicotinoyl-1H-pyrazol-4-yl)-3-(4-methoxyphenyl) thiazolidin-4-one] | 0.22 ± 0.08 |  | 0.42 ± 0.08 | 0.56 ± 0.06 |  |  |  |  | 0.39 to 0.56 |
| O=C1CSC(c2cn(C(=O)c3ccncc3)nc2-c2ccc(Br)cc2)N1c1cccc(Cl)c1 (stereo not drawn) [Compound P-19] | 0.79 ± 0.07 | 248 to 250 | 1.02 ± 0.12 | 1.21 ± 0.05 |  |  |  |  |  |

— publication PMC9382805, “Design, synthesis, anticancer evaluation and docking studies of novel 2-(1-isonicotinoyl-3-phenyl-1H-pyrazol-4-yl)-3-phenylthiazolidin-4-one derivatives as Aurora-A kinase inhibitors” (BMC Chemistry, 2022)
